The results in this text go back to ChEMBL document CHEMBL1759866, “Discovery of 2,4-bis-arylamino-1,3-pyrimidines as insulin-like growth factor-1 receptor (IGF-1R) inhibitors” (Bioorg Med Chem Lett, 2011).

The subject of series [1] is Rattus norvegicus. As to the kind of experiment: In vivo clearance in Sprague-Dawley rat.
The nature of series [2]: Half life in CD1 mouse Calu6 tumor xenograft model at 1 mg/kg, iv administered as solution in DMSO and 5 mg/kg, po administered as suspension in 20% captisol in PBS. The series is classed as ADME, organism-based. Particulars: in vivo.
Series [3] can be described thus: Clearance in Sprague-Dawley rat at 1 mg/kg, iv administered as solution in DSMO and 5 mg/kg, po administered as suspension in 1% Tween 80 and 1% HPMC in water after 12 to 24 hrs by LC-MS analysis. In kind it is ADME, organism-based. Particulars: in vivo.
Series [4] can be described thus: AUC in tumor of CD1 mouse Calu6 tumor xenograft model at 100 mg/kg, po administered twice daily as suspension in 1% Tween 80 and 1% HPMC in water. In kind it is ADME, organism-based, Neoplasm. Also noted: dose 100 mg/kg, route oral.
Series [5] in a line: Cmax in tumor of CD1 mouse Calu6 tumor xenograft model at 30 mg/kg, po administered twice daily as suspension in 1% Tween 80 and 1% HPMC in water. In kind it is ADME, organism-based, Neoplasm. Set-up: dose 30 mg/kg, route oral.
A short description of series [6]: in vivo. Particulars: CD1, mouse, tumor and plasma, po, 100 mg/kg.
Series [7] in a line: Cmax in CD1 mouse Calu6 tumor xenograft model at 100 mg/kg, po administered twice daily as suspension in 1% Tween 80 and 1% HPMC in water. In kind it is ADME, organism-based. Set-up: dose 100 mg/kg, route oral. Particulars: in vivo.
Series [8] can be described thus: Oral bioavailability in CD1 mouse Calu6 tumor xenograft model at 5 mg/kg administered as suspension in 20% captisol in PBS. The settings on record: in vivo. The series is classed as ADME, organism-based.
A short description of series [9]: Volume of distribution at steady state in CD1 mouse Calu6 tumor xenograft model at 1 mg/kg, iv administered as solution in DMSO and 5 mg/kg, po administered as suspension in 20% captisol in PBS. In kind it is ADME, organism-based. The settings on record: in vivo, read-out: Vdss.
A short description of series [10]: Clearance in CD1 mouse Calu6 tumor xenograft model at 1 mg/kg, iv administered as solution in DMSO and 5 mg/kg, po administered as suspension in 20% captisol in PBS. In kind it is ADME, organism-based. Particulars: in vivo.
Series [11] in a line: AUC in tumor of CD1 mouse Calu6 tumor xenograft model at 30 mg/kg, po administered twice daily as suspension in 1% Tween 80 and 1% HPMC in water. The series is classed as ADME, organism-based, Neoplasm. Also noted: dose 30 mg/kg, route oral.
Series [12] in a line: in vivo. The settings on record: CD1, mouse, tumor and plasma, po, 30 mg/kg.
Series [13] can be described thus: Half life in Sprague-Dawley rat at 1 mg/kg, iv administered as solution in DSMO and 5 mg/kg, po administered as suspension in 1% Tween 80 and 1% HPMC in water after 12 to 24 hrs by LC-MS analysis. In kind it is ADME, organism-based. Particulars: in vivo.
Series [14] can be described thus: Cmax in CD1 mouse Calu6 tumor xenograft model at 30 mg/kg, po administered twice daily as suspension in 1% Tween 80 and 1% HPMC in water. In kind it is ADME, organism-based. Also noted: dose 30 mg/kg, route oral. The settings on record: in vivo.
Series [15] is described as follows: Oral bioavailability in Sprague-Dawley rat at 5 mg/kg administered as suspension in 1% Tween 80 and 1% HPMC in water after 12 to 24 hrs by LC-MS analysis. In kind it is ADME, organism-based. Particulars: in vivo.
Series [16] in a line: Cmax in tumor of CD1 mouse Calu6 tumor xenograft model at 100 mg/kg, po administered twice daily as suspension in 1% Tween 80 and 1% HPMC in water. Set-up: dose 100 mg/kg, route oral. The series is classed as ADME, organism-based, Neoplasm.
A short description of series [17]: Volume of distribution at steady state in Sprague-Dawley rat at 1 mg/kg, iv administered as solution in DSMO and 5 mg/kg, po administered as suspension in 1% Tween 80 and 1% HPMC in water after 12 to 24 hrs by LC-MS analysis. In kind it is ADME, organism-based. The settings on record: in vivo, read-out: Vdss.
The nature of series [18]: Volume of distribution at steady state in CD1 mouse Calu6 tumor xenograft model at 12 mg/kg, iv administered as solution in aqueous propylene glycol and 30 mg/kg, po administered as suspension in 20% captisol in PBS of pH 5.73. In kind it is ADME, organism-based. Particulars: in vivo, read-out: Vdss.
Series [19] in a line: Cmax in CD1 mouse Calu6 tumor xenograft model at 30 mg/kg, po administered twice daily as suspension in 20% captisol in PBS of pH 3.5. In kind it is ADME, organism-based. Set-up: dose 30 mg/kg, route oral. The settings on record: in vivo.
Series [20] is described as follows: AUC in tumor of CD1 mouse Calu6 tumor xenograft model at 30 mg/kg, po administered twice daily as suspension in 20% captisol in PBS of pH 3.5. In kind it is ADME, organism-based, Neoplasm. Also noted: dose 30 mg/kg, route oral.
The nature of series [21]: Clearance in Sprague-Dawley rat at 2 mg/kg, iv administered as solution in DSMO and 5 mg/kg, po administered as suspension in 1% Tween 80 and 1% HPMC in water after 12 to 24 hrs by LC-MS analysis. The series is classed as ADME, organism-based. Particulars: in vivo.
Series [22] can be described thus: Cmax in tumor of CD1 mouse Calu6 tumor xenograft model at 100 mg/kg, po administered twice daily as suspension in 20% captisol in PBS of pH 3.5. In kind it is ADME, organism-based, Neoplasm. Set-up: dose 100 mg/kg, route oral.
A short description of series [23]: Half life in CD1 mouse Calu6 tumor xenograft model at 12 mg/kg, iv administered as solution in aqueous propylene glycol and 30 mg/kg, po administered as suspension in 20% captisol in PBS of pH 5.73. In kind it is ADME, organism-based. Particulars: in vivo.
A short description of series [24]: in vivo. The settings on record: CD1, mouse, tumor and plasma, po, 100 mg/kg, pH 3.5.
A short description of series [25]: Clearance in CD1 mouse Calu6 tumor xenograft model at 12 mg/kg, iv administered as solution in aqueous propylene glycol and 30 mg/kg, po administered as suspension in 20% captisol in PBS of pH 5.73. The series is classed as ADME, organism-based. Particulars: in vivo.
Series [26] can be described thus: Half life in Sprague-Dawley rat at 2 mg/kg, iv administered as solution in DSMO and 5 mg/kg, po administered as suspension in 1% Tween 80 and 1% HPMC in water after 12 to 24 hrs by LC-MS analysis. In kind it is ADME, organism-based. The settings on record: in vivo.
Series [27] in a line: AUC in tumor of CD1 mouse Calu6 tumor xenograft model at 100 mg/kg, po administered twice daily as suspension in 20% captisol in PBS of pH 3.5. The series is classed as ADME, organism-based, Neoplasm. Set-up: dose 100 mg/kg, route oral.
The nature of series [28]: Cmax in tumor of CD1 mouse Calu6 tumor xenograft model at 30 mg/kg, po administered twice daily as suspension in 20% captisol in PBS of pH 3.5. The series is classed as ADME, organism-based, Neoplasm. Set-up: dose 30 mg/kg, route oral.
The nature of series [29]: Volume of distribution at steady state in Sprague-Dawley rat at 2 mg/kg, iv administered as solution in DSMO and 5 mg/kg, po administered as suspension in 1% Tween 80 and 1% HPMC in water after 12 to 24 hrs by LC-MS analysis. In kind it is ADME, organism-based. The settings on record: in vivo, read-out: Vdss.
Series [30] is described as follows: Cmax in CD1 mouse Calu6 tumor xenograft model at 100 mg/kg, po administered twice daily as suspension in 20% captisol in PBS of pH 3.5. The series is classed as ADME, organism-based. Set-up: dose 100 mg/kg, route oral. The settings on record: in vivo.
A short description of series [31]: in vivo. The settings on record: CD1, mouse, tumor and plasma, po, 30 mg/kg, pH 3.5.

For the compound `COc1cc(Nc2nccc(Nc3cnc4ccccc4c3)n2)ccc1N1CCOCC1`, the CL in [1] turned out to be 48.3 mL/min/kg.
With `COc1cc(Nc2nccc(Nc3cnc4ccccc4c3)n2)cc(OC)c1OC`, the half-life in series [2] and in series [13] was 1.7 h throughout. The clearance was 6.67 mL/min/kg in series [3] and 26.7 mL/min/kg in series [10]. The AUC in series [4] was determined as 5.17 µg·h/mL; in series [11] it was 0.989 µg·h/mL. Also, the Cmax in series [5] was found to be 525 nM; in series [7], 13400 nM; in [14], 5340 nM; in series [16] it was 2720 nM. Also, the Kp worked out at 0.18 in series [6] and 0.129 in series [12]. Moreover, the bioavailability turned out to be 63% in [8] and 33% in series [15]. The Vd in series [9] stood at 0.3 L/kg; in series [17], 0.2 L/kg.
As for `COc1cc(Nc2nccc(Nc3ccc4ccccc4c3)n2)cc(OC)c1OC`, in series [1], the CL came to 40 mL/min/kg.
`COc1cc(Nc2nccc(Nc3cc4ccccc4cn3)n2)cc(OC)c1OC`: in series [1], the CL was 40 mL/min/kg.
Take `COc1cc(Nc2nccc(Nc3ccc4ncccc4c3)n2)cc(OC)c1OC`: the values for the half-life in series [2] and in [13] were 2.3 h and 1.3 h, respectively. In addition, the values for the clearance in series [3] and in series [10] were 20 mL/min/kg and 107 mL/min/kg, respectively. Also, the bioavailability in series [8] is 56%; in series [15] it was 16%. The figures for the Vd in series [9] and in [17] were 1.8 L/kg and 1.1 L/kg, respectively.
In series [1], `COc1cc(Nc2nccc(Nc3ccc4[nH]ncc4c3)n2)cc(OC)c1OC` had a CL of 40 mL/min/kg.
For `COc1cc(Nc2nccc(Nc3cnc4ccccc4c3)n2)cc(OC)c1`, the CL in series [1] was found to be 48.3 mL/min/kg.
Still for that read-out and setting: the figure for `COc1ccc(Nc2nccc(Nc3cnc4ccccc4c3)n2)cc1Cl` is 48.3 mL/min/kg.
Turning to `c1ccc2ncc(Nc3ccnc(Nc4ccc(OCCCN5CCCCC5)cc4)n3)cc2c1`, the Vd in series [18] came to 28.1 L/kg; in series [29], 9.5 L/kg. In addition, the Cmax in series [19] came to 180 nM; in series [22] it was 143000 nM; in series [28] it was 1360 nM; in [30], 2220 nM. The exposure (AUC) in series [20] is 13.3 µg·h/mL; in series [27], 1120 µg·h/mL. Further, the values for the clearance in [21] and in series [25] were 10 mL/min/kg and 98.3 mL/min/kg, respectively. In addition, the half-life in [23] was 5.3 h; in series [26], 12.1 h. Besides, the Kp in series [24] stood at 81.9; in [31] it was 11.6. In series [15], this compound came in with a bioavailability of 9%.
Consider `COc1cc(Nc2nccc(Nc3cnc4ccccc4c3)n2)ccc1OCCCN1CCCCC1`, for which the CL in series [1] came to 31.7 mL/min/kg.

The term half-life denotes the time needed for the level to fall by half in the phase considered. A high value points to slow decline. One may read the AUC as concentration integrated over time. One may read the Cmax as the maximum level reached in the sampled fluid or tissue. For orientation: Kp means the ratio of the level in a tissue or fluid to that in plasma or blood. By bioavailability is commonly meant the share of a dose that reaches the circulation, judged against a reference dose that is usually intravenous.
